Tested on: 276233-004-R-J1-PDC complex spheroid viability
Assay: Anticancer human tumor 276233-004-R-J1-PDC patient-derived colon adenocarcinoma cell line growth inhibition [GQUAD]
Settings: for IC50: curve of first compound; for viability, T/C: stronger effect = lower value; active means viability on the fitted dose curve at most 10% of control; inactive means the rest
Procedure, shortened: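 Viability of tumor cells grown as complex spheroids with endothelial and stromal cells, exposed to drug combinations. Top concentration at or near clinical Cmax (else 10 microM), diluted in half-log increments.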

[1] = second compound 0.0316 µM, first compound 0.0316 µM
[2] = second compound 0.0316 µM, first compound 0.316 µM
[3] = second compound 0.1 µM, first compound 0.0316 µM
[4] = second compound 0.1 µM, first compound 0.316 µM
[5] = second compound 0.316 µM, first compound 0.0316 µM
[6] = second compound 0.316 µM, first compound 0.316 µM
[7] = second compound 1 µM, first compound 0.0316 µM
[8] = second compound 1 µM, first compound 0.316 µM
[9] = second compound 3.16 µM, first compound 0.0316 µM
[10] = second compound 3.16 µM, first compound 0.316 µM
[11] = second compound 10 µM, first compound 0.0316 µM
[12] = second compound 10 µM, first compound 0.316 µM
[13] = second compound 0.0316 µM, first compound 0.1 µM
[14] = second compound 0.0316 µM, first compound 1 µM
[15] = second compound 0.0316 µM, first compound 3.16 µM
[16] = second compound 0.0316 µM, first compound 10 µM
[17] = second compound 0.1 µM, first compound 0.1 µM
[18] = second compound 0.1 µM, first compound 1 µM
[19] = second compound 0.1 µM, first compound 3.16 µM
[20] = second compound 0.1 µM, first compound 10 µM
[21] = second compound 0.316 µM, first compound 0.1 µM
[22] = second compound 0.316 µM, first compound 1 µM
[23] = second compound 0.316 µM, first compound 3.16 µM
[24] = second compound 0.316 µM, first compound 10 µM
[25] = second compound 1 µM, first compound 0.1 µM
[26] = second compound 1 µM, first compound 1 µM
[27] = second compound 1 µM, first compound 3.16 µM
[28] = second compound 1 µM, first compound 10 µM
[29] = second compound 3.16 µM, first compound 0.1 µM
[30] = second compound 3.16 µM, first compound 1 µM
[31] = second compound 3.16 µM, first compound 3.16 µM
[32] = second compound 3.16 µM, first compound 10 µM
[33] = second compound 10 µM, first compound 0.1 µM
[34] = second compound 10 µM, first compound 1 µM
[35] = second compound 10 µM, first compound 3.16 µM
[36] = second compound 10 µM, first compound 10 µM
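Further: spheroids exposed to drugs for seven days.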
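Wherever viability, T/C is given: 100% = DMSO vehicle control viability.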

CCc1c2c(nc3ccc(O)cc13)-c1cc3c(c(=O)n1C2)COC(=O)[C@]3(O)CC + Cc1[nH]c2ccc(F)cc2c1-c1nc2c3cccnc3c3ncccc3c2[nH]1
> 0.316 µM: IC50 (second compound 0.0316 µM) | IC50 (second compound 0.1 µM) | IC50 (second compound 0.316 µM) | IC50 (second compound 1 µM) | IC50 (second compound 3.16 µM)
inactive: viability, T/C (second compound 0.0316 µM, first compound 0.000999 µM) 104% | viability, T/C (second compound 0.0316 µM, first compound 0.00316 µM) 72.7% | viability, T/C (second compound 0.0316 µM, first compound 0.00999 µM) 85.2% | viability, T/C [1] 103% | viability, T/C (second compound 0.0316 µM, first compound 0.0999 µM) 106% | viability, T/C [2] 94.2% | viability, T/C (second compound 0.1 µM, first compound 0.000999 µM) 76.3% | viability, T/C (second compound 0.1 µM, first compound 0.00316 µM) 89.8% | viability, T/C (second compound 0.1 µM, first compound 0.00999 µM) 79.5% | viability, T/C [3] 97.5% | viability, T/C (second compound 0.1 µM, first compound 0.0999 µM) 111% | viability, T/C [4] 90.4% | viability, T/C (second compound 0.316 µM, first compound 0.000999 µM) 78.8% | viability, T/C (second compound 0.316 µM, first compound 0.00316 µM) 82.6% | viability, T/C (second compound 0.316 µM, first compound 0.00999 µM) 78.1% | viability, T/C [5] 94.1% | viability, T/C (second compound 0.316 µM, first compound 0.0999 µM) 97.2% | viability, T/C [6] 88.1% | viability, T/C (second compound 1 µM, first compound 0.000999 µM) 62.8% | viability, T/C (second compound 1 µM, first compound 0.00316 µM) 82.7% | viability, T/C (second compound 1 µM, first compound 0.00999 µM) 80.5% | viability, T/C [7] 81.6% | viability, T/C (second compound 1 µM, first compound 0.0999 µM) 90.1% | viability, T/C [8] 73.5% | viability, T/C (second compound 3.16 µM, first compound 0.000999 µM) 58.7% | viability, T/C (second compound 3.16 µM, first compound 0.00316 µM) 57.3% | viability, T/C (second compound 3.16 µM, first compound 0.00999 µM) 54% | viability, T/C [9] 62.3% | viability, T/C (second compound 3.16 µM, first compound 0.0999 µM) 67.3% | viability, T/C [10] 67.3% | viability, T/C (second compound 10 µM, first compound 0.000999 µM) 39.8% | viability, T/C (second compound 10 µM, first compound 0.00316 µM) 41.1% | viability, T/C (second compound 10 µM, first compound 0.00999 µM) 56.8% | viability, T/C [11] 62.2% | viability, T/C (second compound 10 µM, first compound 0.0999 µM) 55.4% | viability, T/C [12] 54.8%
< 0.000999 µM: IC50 (second compound 10 µM)

CCCS(=O)(=O)Nc1ccc(F)c(C(=O)c2c[nH]c3ncc(-c4ccc(Cl)cc4)cc23)c1F + Cc1cnc(CNC(=O)c2c(=O)c3ccc(N4CCCN(C)CC4)nc3n3c2sc2ccccc23)cn1
inactive: viability, T/C [1] 82.2% | viability, T/C [13] 93.7% | viability, T/C [2] 117% | viability, T/C [14] 105% | viability, T/C [15] 112% | viability, T/C [16] 75.7% | viability, T/C [3] 92% | viability, T/C [17] 87.3% | viability, T/C [4] 96.4% | viability, T/C [18] 105% | viability, T/C [19] 99.5% | viability, T/C [20] 82.9% | viability, T/C [5] 80.8% | viability, T/C [21] 99.1% | viability, T/C [6] 101% | viability, T/C [22] 100% | viability, T/C [23] 101% | viability, T/C [24] 79.9% | viability, T/C [7] 89.3% | viability, T/C [25] 81.8% | viability, T/C [8] 97.7% | viability, T/C [26] 79.2% | viability, T/C [27] 95% | viability, T/C [28] 74.3% | viability, T/C [9] 94.2% | viability, T/C [29] 76.4% | viability, T/C [10] 81.9% | viability, T/C [30] 80.2% | viability, T/C [31] 71.4% | viability, T/C [32] 62.2% | viability, T/C [11] 67.4% | viability, T/C [33] 70% | viability, T/C [12] 64.3% | viability, T/C [34] 69.7% | viability, T/C [35] 77.1% | viability, T/C [36] 50.5%
> 10 µM: IC50 (second compound 0.0316 µM) | IC50 (second compound 0.1 µM) | IC50 (second compound 0.316 µM) | IC50 (second compound 1 µM) | IC50 (second compound 3.16 µM) | IC50 (second compound 10 µM)

Cc1cccc(N(C)C(=O)C2C(O)CCN2c2nc(C)cc(C(F)(F)F)c2C#N)c1 (stereo unspecified) + Cc1[nH]c2ccc(F)cc2c1-c1nc2c3cccnc3c3ncccc3c2[nH]1
> 10 µM: IC50 (second compound 0.0316 µM) | IC50 (second compound 0.1 µM) | IC50 (second compound 0.316 µM) | IC50 (second compound 1 µM) | IC50 (second compound 3.16 µM) | IC50 (second compound 10 µM)
inactive: viability, T/C [1] 110% | viability, T/C [13] 83.8% | viability, T/C [2] 87.2% | viability, T/C [14] 87.4% | viability, T/C [15] 117% | viability, T/C [16] 114% | viability, T/C [3] 88.2% | viability, T/C [17] 95.6% | viability, T/C [4] 86.4% | viability, T/C [18] 95.3% | viability, T/C [19] 96.6% | viability, T/C [20] 97.8% | viability, T/C [5] 74.6% | viability, T/C [21] 78% | viability, T/C [6] 103% | viability, T/C [22] 97.8% | viability, T/C [23] 96% | viability, T/C [24] 96.8% | viability, T/C [7] 77.4% | viability, T/C [25] 85.2% | viability, T/C [8] 71.6% | viability, T/C [26] 79.2% | viability, T/C [27] 90.5% | viability, T/C [28] 85.2% | viability, T/C [9] 60.5% | viability, T/C [29] 56.8% | viability, T/C [10] 61.6% | viability, T/C [30] 59.6% | viability, T/C [31] 59.8% | viability, T/C [32] 62.6% | viability, T/C [11] 53.7% | viability, T/C [33] 58.4% | viability, T/C [12] 58.6% | viability, T/C [34] 52.1% | viability, T/C [35] 58% | viability, T/C [36] 64.7%

Source: PubChem BioAssay AID2060496 (Molecular Pharmacology Branch, DTP, NCI, 2025)
